# According to patent US20250214942A1, “INHIBITORS OF RECEPTOR INTERACTING PROTEIN KINASE I FOR THE TREATMENT OF DISEASE” (Board of Regents, The University of Texas System, priority 2019, published 2025):
# Test system: human monocytic cell line U937
# Assay: Human U937 cellular necroptosis assay (TNFalpha + z-VAD-FMK, Cell Titer-Glo viability)
# Type: cell-based
# Conditions: Homo sapiens, U-937, 22 h, U937 cells, 25 ng/mL human TNFalpha + 25 μM z-VAD-FMK, read-out: hU937 Avg IC50
# Experimental: The human monocytic cell line U937 (CRL-1593.2) was purchased from ATCC. The cells were routinely maintained in RPMI-1640 Medium (Gibco, Catalog #11875-093) supplemented with 10% heat inactivated fetal bovine serum (Gibco, Catalog #16140-071), 100 units/mL penicillin and 100 μg/mL streptomycin (Gibco, Catalog #15140-122), in a humidified incubator (37° C., 5% CO2). For the assay, cells were resuspended in RPMI-1640 phenol red free Media (Gibco, Catalog #11835-030) supplemented with 10% fetal bovine serum (Sigma, Catalog #F2442), 100 units/mL penicillin and 100 ug/mL streptomycin. Cells were stimulated with 25 ng/mL human TNFalpha (Cell Sciences, Catalog #CSI15659B) and 25 μM z-VAD-FMK (R&D Systems, Catalog #FMK001) followed by seeding 5000 cells per well in a volume of 40 μL to a white, CulturPlate-384 (Perkin Elmer, Catalog #6007680). Stock solutions of the test compounds were prepared in 100% DMSO (Sigma, Catalog #D2650) and serially diluted 1:3 using 100% DMSO. Compounds were additionally diluted 1:40 in assay medium, and 10 μL/well was transferred to the plate. Following the compound addition the plate was incubated at 37° C. and 5% CO2 for 22 h. After 22 h, viability was assessed with the addition of 20 μL of Cell Titer-Glo 2.0 (Promega, Catalog #G9243). The tissue culture plate was shaken on an orbital shaker at 300 RPM for 15 minutes at rt in the dark. Luminescence was measured using a PerkinElmer Envision™ plate reader. IC50 values were calculated using a four-parameter logistic curve fit using Genedata Screener software. Results are shown below in Table 3, where the average value across multiple runs is given.
row,Compound,IC50 [nM]
1,"C[C@H](NC(=O)C12CC(Cn3ncc4cc(C#N)ccc43)(C1)C2)c1c(F)cccc1Cl [Example 256, (S)-N-(1-(2-chloro-6-fluoro-phenyl)ethyl)-3-((5-cyano-1H-indazol-1-yl)methyl)bicyclo-[1.1.1]pentane-1-carboxamide]",895
2,"N#Cc1ccc2c(cnn2CC23CC(C(=O)N4N=CCC4c4nc(C#N)cs4)(C2)C3)c1 (stereo not shown) [Example 254, 2-(1-(3-((5-cyano-1H-indazol-1-yl)methyl)bicyclo[1.1.1]-pentane-1-carbonyl)-4,5-dihydro-1H-pyrazol-5-yl)-thiazole-4-carbonitrile]",503
3,"N#Cc1cnc(OCC23CC(C(=O)N4N=CCC4c4ncc5ccccn45)(C2)C3)cn1 (stereo not shown) [Example 316, 5-((3-(5-(imidazo[1,5-a]-pyridin-3-yl)-4,5-dihydro-1H-pyrazole-1-carbonyl)bicyclo-[1.1.1]pentan-1-yl)methoxy)-pyrazine-2-carbonitrile]",694
4,"N#Cc1ccc(OCC23CC(C(=O)N4N=CCC4c4cc(F)c(Br)c(F)c4)(C2)C3)nc1 (stereo not shown) [Example 275, 6-((3-(5-(4-bromo-3,5-difluorophenyl)-4,5-dihydro-1H-pyrazole-1-carbonyl)-bicyclo[1.1.1]pentan-1-yl)-methoxy)nicotinonitrile]",73
5,"N#Cc1ccc2c(cnn2CC23CC(C(=O)N4C[C@H](O)C[C@H]4c4cccc(F)c4)(C2)C3)c1 (single isomer, unassigned) [Example 263]",9500
6,"N#Cc1cnc(OCC23CC(C(=O)N4N=CCC4c4cn5ccccc5n4)(C2)C3)cn1 (stereo not shown) [Example 317, 5-((3-(5-(imidazo[1,2-a]-pyridin-2-yl)-4,5-dihydro-1H-pyrazole-1-carbonyl)bicyclo-[1.1.1]pentan-1-yl)methoxy)-pyrazine-2-carbonitrile]",8510
7,"COc1cnnc(OCC23CC(C(=O)N4N=CCC4c4cc(F)cc(F)c4)(C2)C3)c1 (stereo not shown) [Example 329, (5-(3,5-difluorophenyl)-4,5-dihydro-1H-pyrazol-1-yl)(3-(((5-methoxypyridazin-3-yl)-oxy)methyl)bicyclo[1.1.1]-pentan-1-yl)methanone]",1290
8,"N#Cc1cnc(OCC23CC(C(=O)N4N=CCC4c4ccccc4Cl)(C2)C3)cn1 (stereo not shown) [Example 318, 5-((3-(5-(2-chlorophenyl)-4,5-dihydro-1H-pyrazole-1-carbonyl)bicyclo[1.1.1]pentan-1-yl)methoxy)pyrazine-2-carbonitrile]",55
9,"Cc1cnc(C2CC=NN2C(=O)C23CC(COc4ccc(C#N)cn4)(C2)C3)cn1 (stereo not shown) [Example 282, 6-((3-(5-(5-methylpyrazin-2-yl)-4,5-dihydro-1H-pyrazole-1-carbonyl)bicyclo[1.1.1]-pentan-1-yl)methoxy)-nicotinonitrile]",153
10,"Cc1cnc(C2CC=NN2C(=O)C23CC(Cn4ncc5nc(C#N)ccc54)(C2)C3)cn1 (stereo not shown) [Example 235, 1-((3-(5-(5-methylpyrazin-2-yl)-4,5-dihydro-1H-pyrazole-1-carbonyl)bicyclo[1.1.1]-pentan-1-yl)methyl)-1H-pyrazolo[4,3-b]pyridine-5-carbonitrile]",339
11,"N#Cc1ccc2nn(CC34CC(C(=O)N5N=CCC5c5cncc(F)c5)(C3)C4)cc2c1 (stereo not shown) [Example 127, 2-((3-(5-(5-fluoropyridin-3-yl)-4,5-dihydro-1H-pyrazole-1-carbonyl)bicyclo[1.1.1]-pentan-1-yl)methyl)-2H-indazole-5-carbonitrile]",1260
12,"N#Cc1ccc2c(cnn2CC23CC(C(=O)N4C[C@@H](O)C[C@H]4c4cccc(F)c4)(C2)C3)c1 (single isomer, unassigned) [Example 262]",4670
13,"Cc1nc(C2CC=NN2C(=O)C23CC(COc4ccc(C#N)cn4)(C2)C3)ccc1F (stereo not shown) [Example 315, 6-((3-(5-(5-fluoro-6-methyl-pyridin-2-yl)-4,5-dihydro-1H-pyrazole-1-carbonyl)bicyclo-[1.1.1]pentan-1-yl)methoxy)-nicotinonitrile]",666
14,"Cn1cc(-c2ccc(OCC34CC(C(=O)N5N=CCC5c5cc(F)cc(F)c5)(C3)C4)c(Cl)c2)cn1 (stereo not shown) [Example 341, (3-((2-chloro-4-(1-methyl-1H-pyrazol-4-yl)phenoxy)methyl)-bicyclo[1.1.1]pentan-1-yl)(5-(3,5-difluorophenyl)-4,5-dihydro-1H-pyrazol-1-yl)-methanone]",23
15,"COc1cc(C(F)C23CC(C(=O)N4N=CCC4c4cc(F)cc(F)c4)(C2)C3)ncn1 (stereo not shown) [Example 229, (5-(3,5-difluorophenyl)-4,5-dihydro-1H-pyrazol-1-yl)(3-(fluoro(6-methoxypyrimidin-4-yl)methyl)bicyclo[1.1.1]-pentan-1-yl)methanone]",5060
16,"Cc1cc(F)c(C2CC=NN2C(=O)C23CC(Cn4ncc5cc(C#N)ccc54)(C2)C3)cc1F (stereo not shown) [Example 236, 1-((3-(5-(2,5-difluoro-4-methylphenyl)-4,5-dihydro-1H-pyrazole-1-carbonyl)-bicyclo[1.1.1]pentan-1-yl)-methyl)-1H-indazole-5-carbonitrile]",3.8
17,"N#Cc1ccc(OCC23CC(C(=O)N4N=CCC4c4cnccn4)(C2)C3)nc1 (stereo not shown) [Example 280, 6-((3-(5-(pyrazin-2-yl)-4,5-dihydro-1H-pyrazole-1-carbonyl)bicyclo[1.1.1]pentan-1-yl)methoxy)nicotinonitrile]",106
18,"Cc1ccc(C2CC=NN2C(=O)C23CC(Cn4ncc5cc(C#N)ccc54)(C2)C3)cn1 (stereo not shown) [Example 249, 1-((3-(5-(6-methylpyridin-3-yl)-4,5-dihydro-1H-pyrazole-1-carbonyl)bicyclo[1.1.1]-pentan-1-yl)methyl)-1H-indazole-5-carbonitrile]",299
19,"Cc1ccc(C2CC=NN2C(=O)C23CC(COc4ccc(C#N)cn4)(C2)C3)c(F)c1 (stereo not shown) [Example 271, 6-((3-(5-(2-fluoro-4-methyl-phenyl)-4,5-dihydro-1H-pyrazole-1-carbonyl)bicyclo-[1.1.1]pentan-1-yl)methoxy)-nicotinonitrile]",20
20,"N#Cc1cnc(OCC23CC(C(=O)N4N=CCC4c4cnccn4)(C2)C3)cn1 (stereo not shown) [Example 274, 5-((3-(5-(pyrazin-2-yl)-4,5-dihydro-1H-pyrazole-1-carbonyl)bicyclo[1.1.1]pentan-1-yl)methoxy)pyrazine-2-carbonitrile]",61
21,"CC1CCN(C(=O)C23CC(COc4cnc(C#N)cn4)(C2)C3)C1c1ccccc1 (stereo not shown) [Example 302, 5-((3-(3-methyl-2-phenyl-pyrrolidine-1-carbonyl)-bicyclo[1.1.1]pentan-1-yl)-methoxy)pyrazine-2-carbonitrile]",9870
22,"Cc1ccc(C2CC=NN2C(=O)C23CC(COc4cnc(C#N)cn4)(C2)C3)cn1 (stereo not shown) [Example 289, 5-((3-(5-(6-methylpyridin-3-yl)-4,5-dihydro-1H-pyrazole-1-carbonyl)bicyclo[1.1.1]-pentan-1-yl)methoxy)pyrazine-2-carbonitrile]",281
23,"Cc1cc2n(CC34CC(C(=O)N5N=CCC5c5cc(F)cc(F)c5)(C3)C4)ccn2n1 (stereo not shown) [Example 216, (5-(3,5-difluorophenyl)-4,5-dihydro-1H-pyrazol-1-yl)(3-((6-methyl-1H-imidazo[1,2-b]pyrazol-1-yl)methyl)bicyclo-[1.1.1]pentan-1-yl)methanone]",92
24,"N#Cc1cnc2c(ccn2CC23CC(C(=O)N4N=CCC4c4cc(F)cc(F)c4)(C2)C3)n1 (stereo not shown) [Example 211, 5-((3-(5-(3,5-difluorophenyl)-4,5-dihydro-1H-pyrazole-1-carbonyl)bicyclo[1.1.1]pentan-1-yl)methyl)-5H-pyrrolo[2,3-b]pyrazine-2-carbonitrile]",16
25,"N#Cc1cnc(OCC23CC(C(=O)N4N=CCC4c4cccc(F)c4F)(C2)C3)cn1 (stereo not shown) [Example 306, 5-((3-(5-(2,3-difluorophenyl)-4,5-dihydro-1H-pyrazole-1-carbonyl)bicyclo[1.1.1]pentan-1-yl)methoxy)pyrazine-2-carbonitrile]",6.6

# Same assay, conditions: U937 cells, 25 ng/mL human TNFalpha + 25 μM z-VAD-FMK, 22 h; read-out: hU937 Avg IC50
row,Compound,IC50 [nM]
1,"N#Cc1cnc(OCC23CC(C(=O)NCc4ccccc4F)(C2)C3)cn1 [Example 293, 3-(((5-cyanopyrazin-2-yl)oxy)-methyl)-N-(2-fluorobenzyl)-bicyclo[1.1.1]pentane-1-carboxamide]",1500
2,"N#Cc1cnc(OCC23CC(C(=O)NCc4ccccc4F)(C2)C3)cn1 [Example 300, 3-(((5-cyanopyrazin-2-yl)-oxy)methyl)-N-(2-fluoro-benzyl)bicyclo[1.1.1]pentane-1-carboxamide]",7420
3,"O=C(N1N=CCC1c1cc(F)cc(F)c1)C12CC(Cn3ncc4ncccc43)(C1)C2 (stereo not shown) [Example 148, (3-((1H-pyrazolo[4,3-b]-pyridin-1-yl)methyl)bicyclo-[1.1.1]pentan-1-yl)(5-(3,5-difluorophenyl)-4,5-dihydro-1H-pyrazol-1-yl)methanone]",912
